{"source": "patent US7605154B2", "about": "“Substituted Thiazolo [4,5-d]pyrimidines as protein kinase inhibitors” (Janssen Pharmaceutica N.V., priority 2005, dated 2009)"}
{"target": "T1, EGFR (Homo sapiens, UniProt P00533)", "T1 construct": "started at nucleotide 2189 (corresponding to amino acid 667) and ended at the termination codon; made in house; host or cells: Sf9 insect cells (baculovirus)", "T1 sequence (P00533 667-1210 limits assumed)": "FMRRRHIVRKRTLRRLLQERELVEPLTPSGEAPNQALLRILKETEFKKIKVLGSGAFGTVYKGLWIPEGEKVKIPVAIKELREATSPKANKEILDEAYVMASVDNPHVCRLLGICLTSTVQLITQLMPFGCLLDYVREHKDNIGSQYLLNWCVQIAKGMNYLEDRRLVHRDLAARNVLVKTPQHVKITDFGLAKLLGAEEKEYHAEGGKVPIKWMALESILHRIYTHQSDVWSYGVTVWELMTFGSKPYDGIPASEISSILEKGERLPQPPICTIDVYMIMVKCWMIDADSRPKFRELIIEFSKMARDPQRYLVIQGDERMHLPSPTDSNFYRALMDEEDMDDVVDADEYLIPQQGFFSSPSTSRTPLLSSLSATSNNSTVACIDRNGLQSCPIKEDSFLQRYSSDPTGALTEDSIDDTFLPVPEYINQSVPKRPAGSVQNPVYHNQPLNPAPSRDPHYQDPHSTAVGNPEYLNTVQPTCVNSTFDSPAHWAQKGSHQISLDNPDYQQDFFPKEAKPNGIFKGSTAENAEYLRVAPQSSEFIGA", "test": "EGFR Kinase Assay", "assay_type": "biochemical", "details": "GST-EGFR, 5 μM ATP", "text": "The portion was PCR amplified with primers that added the lambda attB sequences to each end, recombined into an entry vector, then into a, GST destination vector (as described in Gateway Technologies Manual by Invitrogen Corporation, Carlsbad, Calif.).\nThe destination vector was recombined in the DH10BAC strain of bacteria to produce a bacmid. The bacmid was transfected into Sf 9 cells and the supernatant containing the baculovirus was collected. The GSTEGFR protein was purified using large cultures of Sf 9 cells infected with stock virus. After an appropriate period of time, the cells were collected and lysed. The GSTEGFR was then purified from the lysate on Glutathione-Sepharose columns (as described by Amersham Biosciences, Buckinghamshire, United Kingdom).\nThe free biotin was separated from the biotinylated polyGluTyr on a gel filtration column.\nA mixture of a 10× kinase buffer (500 mM Tris at pH 8.0, 100 mM Magnesium Chloride and 1 mM Sodium Vanadate), DTT (1 mM final from 500 mM stock), ATP (5 μM final from 10 mM stock), biotinylated polyGluTyr (10 μg/μL stock), γ-^33P ATP (10 μCi/μL stock) and water was added to each well (90 μL/well) of a Streptavidin Flashplate (Perkin Elmer, Wellesley, Mass.).\nTest compound in 100% DMSO (2 μL) was added to the appropriate wells. Diluted GSTEGFR (1:300 dilution in 50 mM Tris at pH 8.0 and 0.1% bovine serum albumin) (10 μL) was added to the wells to initiate the reactions.\nThe plates were incubated at 30° C. for 1 hr with shaking. The reacted contents were removed and the plates were sequentially washed three times with a 1×PBS stop buffer (300 μL without Magnesium and Calcium) and 100 mM EDTA. After the final wash, the same stop buffer (200 μL) was added to the wells. The plates were then sealed and read on the TopCount scintillation counter.\nTest compounds were assayed in triplicate at 16 concentrations at half-log dilutions starting at 200 uM. A maximum and minimum signal for the assay was determined on each plate. The percent inhibition of a test compound was calculated according to the formula\nFor a series of test concentrations, the IC50 was derived by graphing percent inhibition against the log of the concentrations tested for a given compound.", "units": {"IC50": "nM"}}
{"smiles": "C#Cc1cccc(Nc2ncnc3nc(Nc4ccc(CN5CCCC5)cc4)sc23)c1", "note": "[Cpd 42, N^7-(3-ethynyl-phenyl)-N^2-(4-pyrrolidin-1-ylmethyl-phenyl)-thiazolo[4,5-d]pyrimidine-2,7-diamine]", "IC50": 5.42}
{"smiles": "C#Cc1cccc(Nc2ncnc3nc(Nc4ccc(CN5CCCCC5)cc4)sc23)c1", "note": "[Cpd 43, N^7-(3-ethynyl-phenyl)-N^2-(4-piperidin-1-ylmethyl-phenyl)-thiazolo[4,5-d]pyrimidine-2,7-diamine]", "IC50": 7.8}
{"smiles": "C#Cc1cccc(Nc2ncnc3nc(Nc4ccc(CN5CCC[C@H]5CO)cc4)sc23)c1", "note": "[Cpd 44, (2S)-(1-{4-[7-(3-ethynyl-phenylamino)-thiazolo[4,5-d]pyrimidin-2-ylamino]-benzyl}-pyrrolidin-2-yl)-methanol]", "IC50": 10}
{"smiles": "C#Cc1cccc(Nc2ncnc3nc(Nc4ccc(S(=O)(=O)N5CCOCC5)cc4)sc23)c1", "note": "[Cpd 45, N^7-(3-ethynyl-phenyl)-N^2-[4-(morpholine-4-sulfonyl)-phenyl]-thiazolo[4,5-d]pyrimidine-2,7-diamine]", "IC50": 22.5}
{"smiles": "O=S(=O)(c1ccc(Nc2nc3ncnc(Nc4ccc(F)c(Cl)c4)c3s2)cc1)N1CCOCC1", "note": "[Cpd 46, N^7-(3-chloro-4-fluoro-phenyl)-N^2-[4-(morpholine-4-sulfonyl)-phenyl]-thiazolo[4,5-d]pyrimidine-2,7-diamine]", "IC50": 15.5}
{"smiles": "C#Cc1cccc(Nc2ncnc3nc(Nc4ccc(CN5CCN(C)CC5)cc4)sc23)c1", "note": "[Cpd 47, N^7-(3-ethynyl-phenyl)-N^2-[4-(4-methyl-piperazin-1-ylmethyl)-phenyl]-thiazolo[4,5-d]pyrimidine-2,7-diamine]", "IC50": 18.2}
{"smiles": "C#Cc1cccc(Nc2ncnc3nc(Nc4ccc(Cn5ccnc5CC)cc4)sc23)c1", "note": "[Cpd 48, N^2-[4-(2-ethyl-imidazol-1-ylmethyl)-phenyl]-N^7-(3-ethynyl-phenyl)-thiazolo[4,5-d]pyrimidine-2,7-diamine]", "IC50": 9}
{"smiles": "C#Cc1cccc(Nc2ncnc3nc(Nc4ccc(CN(C)C)cc4)sc23)c1", "note": "[Cpd 49, N^2-(4-dimethylaminomethyl-phenyl)-N^7-(3-ethynyl-phenyl)-thiazolo[4,5-d]pyriridine-2,7-diamine]", "IC50": 11.8}
{"smiles": "C#Cc1cccc(Nc2ncnc3nc(Nc4ccc(CCN5CCOCC5)cc4)sc23)c1", "note": "[Cpd 50, N^7-(3-ethynyl-phenyl)-N^2-[4-(2-morpholin-4-yl-ethyl)-phenyl]-thiazolo[4,5-d]pyrimidine-2,7-diamine]", "IC50": 13}
{"smiles": "Fc1ccc(Nc2ncnc3nc(NCCN4CCOCC4)sc23)cc1Cl", "note": "[Cpd 51, N^7-(3-chloro-4-fluoro-phenyl)-N^2-(2-morpholin-4-yl-ethyl)-thiazolo[4,5-d]pyrimidine-2,7-diamine]", "IC50": 918}
{"smiles": "Fc1ccc(Nc2ncnc3nc(NCCCN4CCOCC4)sc23)cc1Cl", "note": "[Cpd 52, N^7-(3-chloro-4-fluoro-phenyl)-N^2-(3-morpholin-4-yl-propyl)-thiazolo[4,5-d]pyrimidine-2,7-diamine]", "IC50": 698}
{"smiles": "CC(C)OCCNCc1ccc(Nc2nc3ncnc(Nc4ccc(F)c(Cl)c4)c3s2)cc1", "note": "[Cpd 53, N^7-(3-chloro-4-fluoro-phenyl)-N^2-{-4-[(2-isopropoxy-ethylamino)-methyl]-phenyl}-thiazolo[4,5-d]pyrimidine-2,7-diamine]", "IC50": 7.73}
{"smiles": "C#Cc1cccc(Nc2ncnc3nc(Nc4ccc(CN5CCC[C@@H]5CO)cc4)sc23)c1", "note": "[Cpd 54, (2R)-(1-{4-[7-(3-ethynyl-phenylamino)-thiazolo[4,5-d]pyrimidin-2-ylamino]-benzyl}-pyrrolidin-2-yl)-methanol]", "IC50": 10}
{"smiles": "C#Cc1cccc(Nc2ncnc3nc(Nc4ccc(CNCCOC(C)C)cc4)sc23)c1", "note": "[Cpd 55, N^7-(3-ethynyl-phenyl)-N^2-{4-[(2-isopropoxy-ethylamino)-methyl]-phenyl}-thiazolo[4,5-d]pyrimidine-2,7-diamine]", "IC50": 8.25}
{"smiles": "COc1ccc(Cl)cc1Nc1ncnc2nc(Nc3ccc(CN4CCOCC4)cc3)sc12", "note": "[Cpd 56, N^7-(5-chloro-2-methoxy-phenyl)-N^2-(4-morpholin-4-ylmethyl-phenyl)-thiazolo[4,5-d]pyrimidine-2,7-diamine]", "IC50": 36}
{"smiles": "Clc1cccc(Nc2ncnc3nc(Nc4ccc(CN5CCOCC5)cc4)sc23)c1", "note": "[Cpd 57, N^7-(3-chloro-phenyl)-N^2-(4-morpholin-4-ylmethyl-phenyl)-thiazolo[4,5-d]pyrimidine-2,7-diamine]", "IC50": 7}
{"smiles": "C#Cc1cccc(Nc2ncnc3nc(Nc4ccc(S(=O)(=O)NCCO)cc4)sc23)c1", "note": "[Cpd 58, 4-[7-(3-ethynyl-phenylamino)-thiazolo[4,5-d]pyrimidin-2-ylamino]-N-(2-hydroxy-ethyl)-benzenesulfonamide]", "IC50": 6.5}
{"smiles": "CN(Cc1ccc(Nc2nc3ncnc(Nc4ccc(F)c(Cl)c4)c3s2)cc1)C[C@H]1CCCO1", "note": "[Cpd 59, N^7-(3-chloro-4-fluoro-phenyl)-N^2-(4-{[methyl-(2R)-(tetrahydro-furan-2-ylmethyl)-amino]-methyl}-phenyl)-thiazolo[4,5-d]pyrimidine-2,7-diamine]", "IC50": 11}
{"smiles": "CN(Cc1ccc(Nc2nc3ncnc(Nc4ccc(F)c(Cl)c4)c3s2)cc1)C[C@@H]1CCCO1", "note": "[Cpd 60, N^7-(3-chloro-4-fluoro-phenyl)-N^2-(4-{[methyl-(2S)-(tetrahydro-furan-2-ylmethyl)-amino]-methyl}-phenyl)-thiazolo[4,5-d]pyrimidine-2,7-diamine]", "IC50": 23.9}
{"smiles": "C#Cc1cccc(Nc2ncnc3nc(Nc4ccc(CN(CC(C)O)CC(C)O)cc4)sc23)c1", "note": "(centres unmarked) [Cpd 61, 1-[{4-[7-(3-ethynyl-phenylamino)-thiazolo[4,5-d]pyrimidin-2-ylamino]-benzyl}-(2-hydroxy-propyl)-amino]-propan-2-ol]", "IC50": 27.5}
{"smiles": "C#Cc1cccc(Nc2ncnc3nc(Nc4ccc(CNCC5COC(C)(C)O5)cc4)sc23)c1", "note": "(centres unmarked) [Cpd 62, N^2-(4-{[(2,2-dimethyl-[1,3]dioxolan-4-ylmethyl)-amino]-methyl}-phenyl)-N^7-(3-ethynyl-phenyl)-thiazolo[4,5-d]pyrimidine-2,7-diamine]", "IC50": 6.95}
{"smiles": "C#Cc1cccc(Nc2ncnc3nc(Nc4ccc(CN(C)C5CCOCC5)cc4)sc23)c1", "note": "[Cpd 63]", "IC50": 10.7}
{"smiles": "O=[N+]([O-])c1cc(Nc2ncnc3nc(Nc4ccc(CN5CCOCC5)cc4)sc23)ccc1F", "note": "[Cpd 65, N^7-(4-fluoro-3-nitro-phenyl)-N^2-(4-morpholin-4-ylmethyl-phenyl)-thiazolo[4,5-d]pyrimidine-2,7-diamine]", "IC50": 43.4}
{"smiles": "Fc1ccc(Nc2ncnc3nc(Nc4ccc(CNC[C@H]5CCCO5)cc4)sc23)cc1Cl", "note": "[Cpd 67, N^7-(3-chloro-4-fluoro-phenyl)-N^2-(4-{[(2R)-(tetrahydro-furan-2-ylmethyl)-amino]-methyl}-phenyl)-thiazolo[4,5-d]pyrimidine-2,7-diamine]", "IC50": 3.7}
{"smiles": "C#Cc1cccc(Nc2ncnc3nc(Nc4ccc(OC)nc4)sc23)c1", "note": "[Cpd 69, N^7-(3-ethynyl-phenyl)-N^2-(6-methoxy-pyridin-3-yl)-thiazolo[4,5-d]pyrinidine-2,7-diamine]", "IC50": 28.6}
{"smiles": "COc1ccc(Nc2nc3ncnc(Nc4ccc(F)c(Cl)c4)c3s2)cn1", "note": "[Cpd 70, N^7-(3-chloro-4-fluoro-phenyl)-N^2-(6-methoxy-pyridin-3-yl)-thiazolo[4,5-d]pyrimidine-2,7-diamnine]", "IC50": 19.6}
{"smiles": "Nc1ccc(Nc2nc3ncnc(Nc4ccc(F)c(Cl)c4)c3s2)cn1", "note": "[Cpd 71, N^2-(6-amino-pyridin-3-yl)-N^7-(3-chloro-4-fluoro-phenyl)-thiazolo[4,5-d]pyrimidine-2,7-diamine]", "IC50": 44}
{"smiles": "C#Cc1cccc(Nc2ncnc3nc(Nc4ccc(NCCCN5CCOCC5)nc4)sc23)c1", "note": "[Cpd 72, N^7-(3-ethynyl-phenyl)-N^2-[6-(3-morpholin-4-yl-propylamino)-pyridin-3-yl]-thiazolo[4,5-d]pyrimidine-2,7-diamine]", "IC50": 28.2}
{"smiles": "NS(=O)(=O)c1ccc(Nc2nc3ncnc(Nc4cccc(Cl)c4)c3s2)cc1", "note": "[Cpd 74, 4-[7-(3-chloro-phenylamino)-thiazolo[4,5-d]pyrimidin-2-ylamno]-benzenesulfonamide]", "IC50": 6.6}
{"smiles": "NS(=O)(=O)c1ccc(Nc2nc3ncnc(Nc4c(F)cccc4F)c3s2)cc1", "note": "[Cpd 75, 4-[7-(2,6-difluoro-phenylamino)-thiazolo[4,5-d]pyrimidin-2-ylamino]-benzenesulfonamide]", "IC50": 187}
{"smiles": "NS(=O)(=O)c1ccc(Nc2nc3ncnc(Nc4ccc(Cl)cc4F)c3s2)cc1", "note": "[Cpd 76, 4-[7-(4-chloro-2-fluoro-phenylamino)-thiazolo[4,5-d]pyrimidin-2-ylamino]-benzenesulfonamide]", "IC50": 40.2}
{"smiles": "NS(=O)(=O)c1ccc(Nc2nc3ncnc(Nc4ccc(Br)cc4F)c3s2)cc1", "note": "[Cpd 77, 4-[7-(4-bromo-2-fluoro-phenylamino)-thiazolo[4,5-d]pyrimidin-2-ylamino]-benzenesulfonamide]", "IC50": 87}
